These results are taken from patent US20130196971A1, “FATTY ACID SYNTHASE INHIBITORS” (priority 2010, published 2013).

pIC50: −log10 of the molar value.

Sequence of FAS (P49327 whole entry): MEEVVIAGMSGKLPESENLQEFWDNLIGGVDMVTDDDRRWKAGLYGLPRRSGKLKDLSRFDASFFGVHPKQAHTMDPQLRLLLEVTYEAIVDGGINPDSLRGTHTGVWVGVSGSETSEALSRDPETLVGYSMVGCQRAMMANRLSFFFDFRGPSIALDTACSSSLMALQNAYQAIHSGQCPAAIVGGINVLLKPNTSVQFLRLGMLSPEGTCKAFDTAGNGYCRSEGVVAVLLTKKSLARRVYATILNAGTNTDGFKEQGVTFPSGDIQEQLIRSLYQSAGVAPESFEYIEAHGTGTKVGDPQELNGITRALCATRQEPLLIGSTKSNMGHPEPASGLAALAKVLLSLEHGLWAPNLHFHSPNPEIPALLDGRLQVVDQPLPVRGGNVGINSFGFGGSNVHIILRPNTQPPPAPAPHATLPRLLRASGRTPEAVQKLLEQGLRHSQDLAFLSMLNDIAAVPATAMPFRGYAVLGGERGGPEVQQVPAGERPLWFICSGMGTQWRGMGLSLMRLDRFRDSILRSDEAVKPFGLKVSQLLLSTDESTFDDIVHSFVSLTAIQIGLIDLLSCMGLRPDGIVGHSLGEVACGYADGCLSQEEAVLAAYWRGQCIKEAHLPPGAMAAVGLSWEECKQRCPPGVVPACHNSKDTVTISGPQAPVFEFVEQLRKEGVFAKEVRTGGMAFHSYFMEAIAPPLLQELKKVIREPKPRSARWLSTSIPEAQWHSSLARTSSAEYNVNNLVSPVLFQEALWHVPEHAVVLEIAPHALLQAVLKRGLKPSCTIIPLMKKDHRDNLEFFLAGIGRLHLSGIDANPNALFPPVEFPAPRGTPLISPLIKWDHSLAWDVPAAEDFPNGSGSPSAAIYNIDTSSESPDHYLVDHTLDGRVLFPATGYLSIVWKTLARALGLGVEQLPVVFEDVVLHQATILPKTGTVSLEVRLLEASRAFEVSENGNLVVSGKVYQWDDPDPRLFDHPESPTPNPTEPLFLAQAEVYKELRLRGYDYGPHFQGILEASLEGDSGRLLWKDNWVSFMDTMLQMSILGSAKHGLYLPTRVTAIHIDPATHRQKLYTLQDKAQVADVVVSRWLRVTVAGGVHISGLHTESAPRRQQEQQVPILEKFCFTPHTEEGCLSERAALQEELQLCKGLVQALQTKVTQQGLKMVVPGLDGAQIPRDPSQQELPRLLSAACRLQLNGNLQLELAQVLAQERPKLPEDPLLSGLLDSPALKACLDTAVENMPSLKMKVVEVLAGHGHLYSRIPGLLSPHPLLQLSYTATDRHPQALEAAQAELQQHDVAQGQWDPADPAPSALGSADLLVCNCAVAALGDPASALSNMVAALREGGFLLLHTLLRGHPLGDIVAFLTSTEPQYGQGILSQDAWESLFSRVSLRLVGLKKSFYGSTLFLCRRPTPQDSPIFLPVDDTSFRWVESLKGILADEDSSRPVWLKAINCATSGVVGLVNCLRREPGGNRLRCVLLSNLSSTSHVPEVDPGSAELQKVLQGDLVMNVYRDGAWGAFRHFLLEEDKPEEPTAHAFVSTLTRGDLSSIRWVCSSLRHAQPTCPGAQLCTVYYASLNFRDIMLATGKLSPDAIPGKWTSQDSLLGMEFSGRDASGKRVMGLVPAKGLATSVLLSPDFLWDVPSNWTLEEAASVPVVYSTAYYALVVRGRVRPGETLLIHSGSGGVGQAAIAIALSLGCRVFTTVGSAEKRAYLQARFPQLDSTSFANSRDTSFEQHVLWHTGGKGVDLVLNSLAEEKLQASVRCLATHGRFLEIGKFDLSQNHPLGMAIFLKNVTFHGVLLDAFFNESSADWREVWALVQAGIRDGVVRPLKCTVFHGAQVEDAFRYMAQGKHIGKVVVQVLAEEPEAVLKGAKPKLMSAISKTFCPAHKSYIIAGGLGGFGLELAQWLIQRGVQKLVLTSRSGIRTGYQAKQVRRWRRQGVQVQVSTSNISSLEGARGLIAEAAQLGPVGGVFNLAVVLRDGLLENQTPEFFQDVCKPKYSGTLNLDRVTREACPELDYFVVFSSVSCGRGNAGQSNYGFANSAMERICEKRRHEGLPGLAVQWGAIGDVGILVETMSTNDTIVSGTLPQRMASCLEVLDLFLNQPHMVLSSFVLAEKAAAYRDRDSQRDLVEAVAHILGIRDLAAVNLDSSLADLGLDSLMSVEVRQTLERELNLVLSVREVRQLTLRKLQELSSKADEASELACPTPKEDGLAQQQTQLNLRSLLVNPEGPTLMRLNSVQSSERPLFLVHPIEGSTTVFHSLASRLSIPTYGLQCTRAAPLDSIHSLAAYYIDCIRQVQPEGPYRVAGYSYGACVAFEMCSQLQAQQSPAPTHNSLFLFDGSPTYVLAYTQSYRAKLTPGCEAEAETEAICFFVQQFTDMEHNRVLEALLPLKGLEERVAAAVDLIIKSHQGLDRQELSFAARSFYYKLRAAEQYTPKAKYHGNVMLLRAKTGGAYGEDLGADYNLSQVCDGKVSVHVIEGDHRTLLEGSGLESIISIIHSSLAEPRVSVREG

The assay concerns the target FAS (Homo sapiens, UniProt P49327). The experiment in a line: FAS Assay (Assay #1 residual NADPH detection or Assay #2 CoA detection with CPM dye). Type of assay: biochemical. The note with it: FAS inhibition, measured through Assay #1 or Assay #2; one experiment or average of multiple experiments. As to the method: FAS activity was measured through one of the two following assays.
Inhibition of FAS activity can be measured based on the detection of residual NADPH substrate after the FAS assay is quenched. This assay is run as a 10 μL endpoint assay in 384-well format, where the reaction contains 20 μM malonyl-CoA, 2 μM acetyl-CoA, 30 μM NADPH and 40 nM FAS in 50 mM sodium phosphate, pH 7.0. The assay is run by sequentially dispensing 5 μl of a malonyl-CoA solution, then enzyme solution (containing the acetyl-CoA, and NADPH) into a black, low volume assay plate (Greiner 784076) pre-dispensed with 100 nL compound solutions in DMSO. The reaction is incubated at ambient temperature for 60 minutes, then quenched with 5 μL of a developing solution composed of 90 μM resazurin, 0.3 IU/ml diaphorase in 50 mM sodium phosphate, pH 7.0. The developed reaction is read on a Molecular Devices Analyst or Acquest (or equivalent) plate reader using a 530 nm excitation wavelength filter, a 580 nm emission filter, and 561 nm dichroic filter. The test compounds are prepared in neat DMSO at a concentration of 10 mM. For inhibition curves, compounds are diluted using a three fold serial dilution and tested at 11 concentrations (e.g. 25 μM-0.42 nM). Curves are analysed using ActivityBase and XLfit, and results are expressed as pIC50 values.
Inhibition of FAS can also be quantified based on the detection of the CoA products with a thio-reactive coumarin dye. This assay is run as a 10 μL endpoint assay in 384-well format, where the reaction contains 20 μM malonyl-CoA, 20 μM acetyl-CoA, 40 μM NADPH and 2 nM FAS in 50 mM sodium phosphate, pH 7.0, and 0.04% Tween-20. The assay is run by adding 5 μL enzyme solution to a black, low volume assay plate (Greiner 784076) pre-dispensed with 100 nl compound solutions in DMSO. After 30 minutes, 5 μL substrate is added, and the reaction incubated at ambient temperature for an additional 60 minutes. The reaction is then quenched with 10 μL of 6M guanidine-HCl containing 50 μM CPM (7-diethylamino-3-(4′-maleimidylphenyl)-4-methylcoumarin (CPM; thio-reactive dye), and incubated for 30 minutes. The plate is read on an Envision (PerkinElmer) or equivalent plate reader using a 380 nm excitation wavelength filter, and a 486 nm emission filter. Data fitting and compound preparations are done as described above.
What is called pIC50 is the IC50 on a negative log10 scale, so that one unit is a factor of ten. A low value points to a large IC50. As to `COc1ccc(-c2ccc(-c3nnnn3C[C@@H]3CCN(C(=O)C4CC4)C3)cc2)c(Cl)c1` [Example 5, 5-[2′-chloro-4′-(methyloxy)-4-biphenylyl]-1-{[(3R)-1-(cyclopropylcarbonyl)-3-pyrrolidinyl]methyl}-1H-tetrazole], the pIC50 was 6.12.
Regarding `O=C(C1CC1)N1CC[C@@H](Cn2nncc2-c2ccc(-c3ccc4[nH]ncc4c3)cc2)C1` [Example 11, 5-[4-(1-{[(3R)-1-(cyclopropylcarbonyl)-3-pyrrolidinyl]methyl}-1H-1,2,3-triazol-5-yl)phenyl]-1H-indazole], the negative logarithm of the IC50 (pIC50) is 7.40.
`Cc1nnc(-c2ccc(-c3ccc(Cl)cc3Cl)cc2)n1C[C@@H]1CCN(C(=O)C2CC2)C1` [Example 15, 4-{[(3S)-1-(cyclopropylcarbonyl)-3-pyrrolidinyl]methyl}-3-(2′,4′-dichloro-4-biphenylyl)-5-methyl-4H-1,2,4-triazole] showed a pIC50 of 6.22.
Under `O=C(C1CC1)N1CC[C@@H](Cn2ccnc2-c2ccc(-c3ccccc3)cc2)C1` [Example 26, 2-(4-biphenylyl)-1-{[(3S)-1-(cyclopropylcarbonyl)-3-pyrrolidinyl]methyl}-1H-imidazole] stands 6.72; under `O=C(C1CC1)N1CC[C@@H](Cn2ccnc2-c2ccc(-c3ccc4occc4c3)cc2)C1` [Example 34, 2-[4-(1-benzofuran-5-yl)phenyl]-1-{[(3S)-1-(cyclopropylcarbonyl)-3-pyrrolidinyl]methyl}-1H-imidazole], 7.64.
Under `Cc1nc(-c2ccc(-c3ccc(F)cc3)cc2)n(CC2CCN(C(=O)C3CC3)C2)c1C` (stereo not drawn) [Example 41, 1-{[1-(cyclopropylcarbonyl)-3-pyrrolidinyl]methyl}-2-(4′-fluoro-4-biphenylyl)-4,5-dimethyl-1H-imidazole] stands 5.82.
Under `Cc1cnc(-c2ccc(-c3ccc(Cl)cc3Cl)cc2)n1CC1CCN(C(=O)C2CC2)C1` (stereo not drawn) [Example 54, 1-{[1-(cyclopropylcarbonyl)-3-pyrrolidinyl]methyl}-2-(2′,4′-dichloro-4-biphenylyl)-5-methyl-1H-imidazole] stands 6.22; under `O=C(C1CC1)N1CC[C@@H](Cn2cnnc2-c2ccc(-c3cccc4[nH]ncc34)cc2)C1` [Example 67, 4-[4-(4-{[(3S)-1-(cyclopropylcarbonyl)-3-pyrrolidinyl]methyl}-4H-1,2,4-triazol-3-yl)phenyl]-1H-indazole], 7.89.
Compound `Cn1ccc2cc(-c3ccc(-c4nncn4C[C@@H]4CCN(C(=O)C5CC5)C4)cc3)cnc21` [Example 73, 5-[4-(4-{[(3S)-1-(cyclopropylcarbonyl)-3-pyrrolidinyl]methyl}-4H-1,2,4-triazol-3-yl)phenyl]-1-methyl-1H-pyrrolo[2,3-b]pyridine] showed a negative logarithm of the IC50 (pIC50) of 6.60.
Under `O=C(C1CC1)N1CC[C@@H](Cn2cnnc2-c2ccc(-c3cccc(-c4cc[nH]n4)c3)cc2F)C1` [Example 87, 4-{[(3S)-1-(cyclopropylcarbonyl)-3-pyrrolidinyl]methyl}-3-[3-fluoro-3′-(1H-pyrazol-5-yl)-4-biphenylyl]-4H-1,2,4-triazole] stands 7.20; under `O=C(C1CC1)N1CC(Cn2cnnc2-c2ccc(-c3ccc4ncccc4c3)cc2F)C1` [Example 96, 6-[4-(4-{[1-(cyclopropylcarbonyl)-3-azetidinyl]methyl}-4H-1,2,4-triazol-3-yl)-3-fluorophenyl]quinoline], 6.20.
In the case of `COc1cc(-c2ccc(-c3nncn3C[C@@H]3CCN(C(=O)C4CC4)C3)c(F)c2)ccc1C` [Example 98, 4-{[(3S)-1-(cyclopropylcarbonyl)-3-pyrrolidinyl]methyl}-3-[3-fluoro-4′-methyl-3′-(methyloxy)-4-biphenylyl]-4H-1,2,4-triazole], the pIC50 was 6.70.
